Assay results taken from patent publication US20110160308A1, “Use of Monoamine Oxidase Inhibitors to Treat Outer Retina Disorders” (ALCON RESEARCH, LTD., priority 2006, published 2011).
“Also recorded” adds a separate entry of the source.

Assays:
MAO-B = biological target: T1, MAO-B (Rattus norvegicus, UniProt P19643); assay: In vitro MAO-B enzyme activity assay (radioenzymatic, 14C-phenylethylamine) in rat brain mitochondria; format: biochemical
T1 construct: of the invention in rat brain mitochondria; from tissue; host or cells: rat brain, crude mitochondrial fraction (male Wistar rats)
T1 sequence (P19643 1-520): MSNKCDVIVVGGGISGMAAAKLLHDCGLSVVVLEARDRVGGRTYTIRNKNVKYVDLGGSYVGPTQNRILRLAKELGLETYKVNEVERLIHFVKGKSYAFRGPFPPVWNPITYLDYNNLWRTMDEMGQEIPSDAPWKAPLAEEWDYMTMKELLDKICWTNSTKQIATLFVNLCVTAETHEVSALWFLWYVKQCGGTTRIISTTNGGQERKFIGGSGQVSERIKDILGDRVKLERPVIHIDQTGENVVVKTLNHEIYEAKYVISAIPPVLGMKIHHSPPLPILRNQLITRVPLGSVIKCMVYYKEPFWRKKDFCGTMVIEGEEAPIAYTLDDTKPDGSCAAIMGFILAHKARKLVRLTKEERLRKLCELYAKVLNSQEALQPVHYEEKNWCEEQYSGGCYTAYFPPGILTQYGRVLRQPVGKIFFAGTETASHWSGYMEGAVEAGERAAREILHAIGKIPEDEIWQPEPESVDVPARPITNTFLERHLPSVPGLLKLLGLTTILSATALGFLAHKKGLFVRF
Description: (§1) In Vitro MAO-A and MAO-B Enzyme Activities Assay
(§2) —Membrane Preparations (Crude Mitochondrial Fraction)
(§3) The crude homogenate was centrifuged at 2220 rpm for 10 minutes at +4° C. and the supernatant recovered. The pellet was homogenized and centrifuged again. The two supernatants were pooled and centrifuged at 9250 rpm for 10 minutes. The pellet was resuspended in fresh buffer and centrifuged at 11250 rpm for 10 minutes at +4° C. The resulting pellet was stored at −80° C.
(§4) —In Vitro Enzyme Activities Assay
(§5) The enzyme activities were assessed with a radioenzymatic assay using the substrates ^14C-serotonin (5-HT) and ^14C-phenylethylamine (PEA) for MAO-A and MAO-B, respectively.
(§6) The mitochondrial pellet (500 μg protein) was resuspended in 0.1 M phosphate buffer (pH 7.4). 500 μl of the suspension were added to a 50 μl solution of the test compound or buffer, and incubated for 30 min at 37° C. (preincubation) then the substrate (50 μl) was added. The incubation was carried out for 30 minutes at 37° C. (^14C-5-HT, 5 μM) or for 10 minutes at 37° C. (^14C-PEA, 0.5 μM).
(§7) After centrifugation, the deaminated metabolites were extracted with 3 ml of diethyl ether (5-HT) or toluene (PEA) and the radioactive organic phase was measured by liquid scintillation spectrometry at 90% efficiency. The amount of neutral and/or acidic metabolites formed as a result of MAO activity was obtained by measuring the radioactivity of the eluate.
(§8) The activity of MAO in the sample, corresponding to a percentage of radioactivity compared with the control activity in the absence of the inhibitor, was expressed as nmoles of substrate transformed/mg protein/min.
(§9) The drug inhibition curves were obtained from at least eight different concentration points, each in duplicate (10^−10 to 10^−5 M).

MAO-A = biological target: T2, MAO-A (Rattus norvegicus, UniProt P21396); assay: In vitro MAO-A enzyme activity assay (radioenzymatic, 14C-serotonin) in rat brain mitochondria; format: biochemical
T2 construct: of the invention in rat brain mitochondria; from tissue; host or cells: rat brain, crude mitochondrial fraction (male Wistar rats)
T2 sequence (P21396 1-526): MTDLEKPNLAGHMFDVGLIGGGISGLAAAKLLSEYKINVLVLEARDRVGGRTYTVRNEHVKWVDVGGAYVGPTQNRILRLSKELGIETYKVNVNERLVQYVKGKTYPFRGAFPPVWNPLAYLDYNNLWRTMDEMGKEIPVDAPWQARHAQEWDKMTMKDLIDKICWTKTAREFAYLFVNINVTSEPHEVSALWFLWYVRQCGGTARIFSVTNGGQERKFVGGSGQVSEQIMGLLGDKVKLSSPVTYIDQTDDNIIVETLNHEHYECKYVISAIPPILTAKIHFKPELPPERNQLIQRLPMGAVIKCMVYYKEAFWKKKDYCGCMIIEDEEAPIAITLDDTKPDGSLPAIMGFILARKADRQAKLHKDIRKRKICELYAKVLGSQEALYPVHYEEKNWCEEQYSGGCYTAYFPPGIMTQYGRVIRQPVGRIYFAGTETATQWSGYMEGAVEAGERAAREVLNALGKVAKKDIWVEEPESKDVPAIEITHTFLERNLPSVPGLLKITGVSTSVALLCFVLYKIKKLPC
Description: as §1, §2, §3, §4, §5, §6, §7, §8, §9

[1] = test system: mouse closed head injury model; conditions: 1 mg/kg; cited from earlier work
[2] = test system: rat photo-oxidative induced retinopathy model; assay: Rat photo-oxidative induced retinopathy model (blue-light exposure; ERG and retinal morphology); format: in vivo; conditions: 15 to 60 mg/kg IP, 1-month recovery period
[3] = test system: rat photo-oxidative induced retinopathy model; assay: as above; format: in vivo; conditions: for Maximum ERG a-wave responses, % of normal: 5 days after 6-hour blue-light exposure
Description: Neuroprotective Activity of MAO Inhibitors in the Rat Photo-Oxidative Induced Retinopathy Model
Prevention of Photo-oxidative injury with Safinamide: The efficacy of Safinamide, a short acting MAO-B inhibitor, to protect retinal cells against the induction of photochemical lesions by blue-light exposure was assessed by measuring light-induced changes in retinal functioning (electroretinogram (ERG)) and evaluating retinal morphology changes.
Subjects. Male Sprague Dawley rats were randomly assigned to drug or vehicle experimental groups. Rats receiving vehicle (N=15) or drug treatment (Safinamide: 5 mg/kg, N=10; 15 mg/kg, N=10; 30 mg/kg, N=10; and 60 mg/kg, N=9) were pre-dosed (IP) at 48, 24 and 0 hours prior to a 6-hour light exposure (spectrally filtered blue light (˜220 fc)) and 24 and 48 hours after light exposure. Control rats were housed in their home cage under normal cyclic light exposure. Control rats were not dosed with either vehicle or drug.
Retinal Function Assessment. The ERG is a non-invasive clinical measurement of the electrical response of the eye to a flash of light. The a-wave and b-wave are two components of the ERG that are diagnostic of retinal function. The a-wave reflects outer retina function and is generated by interactions between photoreceptor and RPE while the b-wave reflects inner retina function, particularly on-bipolar cells. […] Changes in the a-wave amplitude or latency are diagnostic of outer retina pathology. The ERG was recorded after a five day recovery period from dark-adapted anesthetized rats (ketamine-HCl, 75 mg/Kg; xylazine, 6 mg/Kg). The eye's electrical response to a flash of light was elicited by viewing a ganzfeld. ERGs to a series of light flashes increasing in intensity were digitized to analyze temporal characteristics of the waveform and response voltage-log intensity relationship.
Light Microscopic Assessment of Retinal Lesions. Ocular tissues were fixed in a mixture of paraformaldehyde and glutaraldehyde, dehydrated in an ascending ethanol series, embedded in JB-4 plastic resin, and 1 to 1.5-micron thick sections were analyzed using a quantitative computer image analysis system attached to the microscope. Retinal Pigment Epithelium (RPE), Outer Nuclear Layer (ONL) and Inner to Nuclear Layer (INL) thickness as well as the length of inner segments (IS), where mitochondria are located, and outer segments (OS), which contain the light sensitive photopigment, were measured to assess outer retina protection.

[4] = test system: light-induced functional or morphological changes; assay: Light damage paradigms used by the present inventors; format: in vivo
[5] = 15 and 60 mg/kg, light microscopy

IC50 (MAO-B) | IC50 (MAO-A) | SMILES | other results
0.04 µM | 50 µM | CN(CC(N)=O)Cc1ccc(OCc2cccc(Cl)c2)cc1 [2-{[4-(3-Chloro-benzyloxy)-benzyl]-methyl-amino}-acetamide] | 
0.11 µM | > 100 µM | NC(=O)[C@@H](CO)NCc1ccc(OCc2cccc(Cl)c2)cc1 [(R)-2-[4-(3-Chloro-benzyloxy)-benzylamino]-3-hydroxy-propionamide] | 
0.03 µM | 301 µM | C[C@H](NCc1ccc(OCC2CCCCC2)cc1)C(N)=O [(S)-2-(4-Cyclohexylmethoxy-benzylamino)-propionamide] | 
0.18 µM | 228 µM | C[C@H](NCc1ccc(OCc2ccccc2F)cc1)C(N)=O [(S)-2-[4-(2-Fluoro-benzyloxy)-benzylamino]-propionamide] | 
0.04 µM | 84 µM | NC(=O)[C@H](CO)NCc1ccc(OCc2cccc(Cl)c2)cc1 [(S)-2-[4-(3-Chloro-benzyloxy)-benzylamino]-3-hydroxy-propionamide] | 
0.03 µM | 114 µM | C[C@H](NCc1ccc(OCc2cccc(Cl)c2)cc1)C(N)=O [(S)-2-[4-(3-Chloro-benzyloxy)-benzylamino]-propionamide] | 
0.14 µM |  | NC(=O)[C@H](CO)NCc1ccc(OCc2cccc(F)c2)cc1 [(S)-2-[4-(3-Fluoro-benzyloxy)-benzylamino]-3-hydroxy-propionamide] | 
0.06 µM | 93 µM | C[C@H](NCc1ccc(OCc2ccc(F)cc2)cc1)C(N)=O [(S)-2-[4-(4-Fluoro-benzyloxy)-benzylamino]-propionamide] | 
0.06 µM | 82 µM | C[C@@H](C(N)=O)N(C)Cc1ccc(OCc2cccc(Cl)c2)cc1 [(S)-2-{[4-(3-Chloro-benzyloxy)-benzyl]-methyl-amino}-propionamide] | 
 |  | C#CCN[C@@H]1CCc2ccccc21 [Rasagiline] | cerebral edema reduction [1]: 40-50%
 |  | Fc1ccc(C(c2ccc(F)cc2)N2CCN(C/C=C/c3ccccc3)CC2)cc1 [flunarizine] | preventing light-induced functional or morphological changes [4]: moderately effective
 |  | COCCOC(=O)C1=C(C)NC(C)=C(C(=O)OC(C)C)C1c1cccc([N+](=O)[O-])c1 (stereo not drawn) [nimodipine] | preventing light-induced functional or morphological changes [4]: no effect
 |  | Cc1c(C)c2c(c(C)c1O)CC[C@@](C)(CCC[C@H](C)CCC[C@H](C)CCCC(C)C)O2 [α-tocopherol] | preventing light-induced functional or morphological changes [4]: ineffective

SMILES | IC50 (MAO-B) | IC50 (MAO-A) | other results
C[C@H](NCc1ccc(OCc2cccc(F)c2)cc1)C(N)=O [Safinamide, (S)-2-[4-(3-Fluoro-benzyloxy)-benzylamino]-propionamide] | 0.09 µM | 584 µM | ERG a- and b-wave function after 1-month recovery [2]: not significantly different from normal; also recorded: normal ERG a- and b-wave function; ERG a- and b-wave function after 1-month recovery ([2]; listed as safinamide): significant and complete retinal function protection; Maximum ERG a-wave responses, % of normal ([3]; 5 mg/kg IP): 52 % of normal; Maximum ERG a-wave responses, % of normal ([3]; 15 mg/kg IP): greater than 70 % of normal; Maximum ERG a-wave responses, % of normal ([3]; 30 mg/kg IP): greater than 70 % of normal; Retinal responses (ERG) compared to control rats ([3]; 60 mg/kg IP, 5 days after blue-light exposure): not significantly diminished compared to control rats; photoreceptor segment length compared to vehicle-dosed rats ([3]; 60 mg/kg, light microscopy): significantly longer; retinal lesions ([3]; 60 mg/kg, light microscopy): devoid of any significant retinal lesions; retinal lesions ([3]; 60 mg/kg, light microscopy, listed as safinamide): devoid of significant retinal lesions; ERG (retinal function) protection compared to vehicle-dosed rats ([3]; 5-60 mg/kg IP, 5-day recovery period): Significant dose-dependent protection of retinal function; also recorded: significant ERG protection; ONL thickness compared to vehicle-dosed rats [3, 5]: significantly thicker; RPE thickness compared to vehicle-dosed rats [3, 5]: thicker RPE compared to vehicle-dosed rats; reduction in retinal lesions across doses ([3]; light microscopy, all doses): Dose-dependent reduction in retinal lesions
